Values after ≈ are worked out from the molar mass of the structure shown.
Columns and labels:
Klebsiella pneumoniae [1] = experiment: Antibacterial activity against Klebsiella pneumoniae D expressing CTX-M group 1 beta-lactamase by Etest method; format: functional
Klebsiella pneumoniae [2] = experiment: Antibacterial activity against Klebsiella pneumoniae B expressing CTX-M group 1 beta-lactamase by Etest method; format: functional
Klebsiella pneumoniae [3] = experiment: Antibacterial activity against Klebsiella pneumoniae expressing CTX-M group 1 beta-lactamase by Etest method; format: functional
Escherichia coli [4] = experiment: Antibacterial activity against Escherichia coli TrC B expressing Klebsiella pneumoniae B blaCTX-M beta-lactamase by Etest method; format: functional
Escherichia coli [5] = experiment: Antibacterial activity against Escherichia coli TrC C expressing Klebsiella pneumoniae C blaCTX-M beta-lactamase by Etest method; format: functional
Escherichia coli [6] = experiment: Antibacterial activity against rifampicin resistant Escherichia coli J53-2 by Etest method
Klebsiella pneumoniae [7] = experiment: Antibacterial activity against Klebsiella pneumoniae A expressing CTX-M group 1 beta-lactamase by Etest method; format: functional
Escherichia coli [8] = experiment: Antibacterial activity against Escherichia coli TrC A expressing Klebsiella pneumoniae A blaCTX-M beta-lactamase by Etest method; format: functional
Klebsiella pneumoniae [9] = experiment: Antibacterial activity against Klebsiella pneumoniae C expressing CTX-M group 1 beta-lactamase by Etest method; format: functional
Klebsiella pneumoniae [10] = experiment: Antibacterial activity against Klebsiella pneumoniae C expressing CTX-M group 1 beta-lactamase by Etest method in presence of clavulanic acid; format: functional
Klebsiella pneumoniae [11] = experiment: Antibacterial activity against Klebsiella pneumoniae A expressing CTX-M group 1 beta-lactamase by Etest method in presence of clavulanic acid; format: functional
Escherichia coli [12] = experiment: Antibacterial activity against rifampicin resistant Escherichia coli J53-2 by Etest method in presence of clavulanic acid; format: functional
Klebsiella pneumoniae [13] = experiment: Antibacterial activity against Klebsiella pneumoniae D expressing CTX-M group 1 beta-lactamase by Etest method in presence of clavulanic acid; format: functional
Klebsiella pneumoniae [14] = experiment: Antibacterial activity against Klebsiella pneumoniae expressing CTX-M group 1 beta-lactamase by Etest method in presence of clavulanic acid; format: functional
Escherichia coli [15] = experiment: Antibacterial activity against Escherichia coli TrC A expressing Klebsiella pneumoniae A blaCTX-M beta-lactamase by Etest method in presence of clavulanic acid
Escherichia coli [16] = experiment: Antibacterial activity against Escherichia coli TrC B expressing Klebsiella pneumoniae B blaCTX-M beta-lactamase by Etest method in presence of clavulanic acid
Escherichia coli [17] = experiment: Antibacterial activity against Escherichia coli TrC C expressing Klebsiella pneumoniae C blaCTX-M beta-lactamase by Etest method in presence of clavulanic acid
Klebsiella pneumoniae [18] = experiment: Antibacterial activity against Klebsiella pneumoniae B expressing CTX-M group 1 beta-lactamase by Etest method in presence of clavulanic acid; format: functional

| SMILES | MIC (Klebsiella pneumoniae [1]) | MIC90 (Klebsiella pneumoniae [1]) | MIC (Klebsiella pneumoniae [2]) | MIC50 (Klebsiella pneumoniae [2]) | MIC90 (Klebsiella pneumoniae [2]) | MIC (Klebsiella pneumoniae [3]) | MIC50 (Klebsiella pneumoniae [3]) | MIC90 (Klebsiella pneumoniae [3]) | MIC (Escherichia coli [4]) | MIC (Escherichia coli [5]) | MIC (Escherichia coli [6]) | MIC (Klebsiella pneumoniae [7]) | MIC50 (Klebsiella pneumoniae [7]) | MIC90 (Klebsiella pneumoniae [7]) | MIC50 (Klebsiella pneumoniae [1]) | MIC (Escherichia coli [8]) | MIC (Klebsiella pneumoniae [9]) | MIC50 (Klebsiella pneumoniae [9]) | MIC90 (Klebsiella pneumoniae [9]) | MIC (Klebsiella pneumoniae [10]) | further results |
| --- | --- | --- | --- | --- | --- | --- | --- | --- | --- | --- | --- | --- | --- | --- | --- | --- | --- | --- | --- | --- | --- |
| CO/N=C(\C(=O)N[C@@H]1C(=O)N2C(C(=O)[O-])=C(C[N+]3(C)CCCC3)CS[C@H]12)c1csc(N)n1 | 32 µg/mL (≈ 66.6 µM) | > 256 µg/mL | 16 µg/mL (≈ 33.3 µM) | 16 µg/mL (≈ 33.3 µM) | 48 µg/mL (≈ 99.9 µM) | – | – | – | – | – | – | – | – | – | – | – | – | – | – | – | – |
| NCC[C@H](O)C(=O)N[C@@H]1C[C@H](N)[C@@H](O[C@H]2O[C@H](CN)[C@@H](O)[C@H](O)[C@H]2O)[C@H](O)[C@H]1O[C@H]1O[C@H](CO)[C@@H](O)[C@H](N)[C@H]1O [AMIKACIN] | 2 µg/mL (≈ 3.42 µM) | 16 µg/mL (≈ 27.3 µM) | 4 µg/mL (≈ 6.83 µM) | 6 µg/mL (≈ 10.2 µM) | 12 µg/mL (≈ 20.5 µM) | 2 µg/mL (≈ 3.42 µM) | 16 µg/mL (≈ 27.3 µM) | 32 µg/mL (≈ 54.6 µM) | 4 µg/mL (≈ 6.83 µM) | 4 µg/mL (≈ 6.83 µM) | 1 µg/mL (≈ 1.71 µM) | 2 µg/mL (≈ 3.42 µM) | 48 µg/mL (≈ 82 µM) | 96 µg/mL (≈ 164 µM) | 6 µg/mL (≈ 10.2 µM) | 2 µg/mL (≈ 3.42 µM) | 1.5 µg/mL (≈ 2.56 µM) | 6 µg/mL (≈ 10.2 µM) | 16 µg/mL (≈ 27.3 µM) | – | – |
| CC1(C)S[C@@H]2[C@H](NC(=O)[C@H](N)c3ccc(O)cc3)C(=O)N2[C@H]1C(=O)O [AMOXICILLIN] | 6 µg/mL (≈ 16.4 µM) | 16 µg/mL (≈ 43.8 µM) | 12 µg/mL (≈ 32.8 µM) | 16 µg/mL (≈ 43.8 µM) | 16 µg/mL (≈ 43.8 µM) | 8 µg/mL (≈ 21.9 µM) | 16 µg/mL (≈ 43.8 µM) | > 256 µg/mL | – | – | – | 4 µg/mL (≈ 10.9 µM) | 8 µg/mL (≈ 21.9 µM) | 8 µg/mL (≈ 21.9 µM) | 16 µg/mL (≈ 43.8 µM) | – | 6 µg/mL (≈ 16.4 µM) | 16 µg/mL (≈ 43.8 µM) | 64 µg/mL (≈ 175 µM) | – | – |
| CO/N=C(\C(=O)N[C@@H]1C(=O)N2C(C(=O)O)=C(COC(C)=O)CS[C@H]12)c1csc(N)n1 [CEFOTAXIME] | > 256 µg/mL | > 256 µg/mL | 96 µg/mL (≈ 211 µM) | > 256 µg/mL | > 256 µg/mL | 48 µg/mL (≈ 105 µM) | > 256 µg/mL | > 256 µg/mL | 256 µg/mL (≈ 562 µM) | 256 µg/mL (≈ 562 µM) | 0.25 µg/mL (≈ 0.549 µM) | 64 µg/mL (≈ 141 µM) | > 256 µg/mL | > 256 µg/mL | > 256 µg/mL | 256 µg/mL (≈ 562 µM) | > 256 µg/mL | > 256 µg/mL | > 256 µg/mL | 0.047 µg/mL | MIC50 (Klebsiella pneumoniae [10]): 0.125 µg/mL; MIC90 (Klebsiella pneumoniae [10]): > 1 µg/mL; MIC (Klebsiella pneumoniae [11]): 0.023 µg/mL; MIC50 (Klebsiella pneumoniae [11]): 0.023 µg/mL; MIC90 (Klebsiella pneumoniae [11]): 0.19 µg/mL; MIC (Escherichia coli [12]): ≤ 0.06 µg/mL; MIC (Klebsiella pneumoniae [13]): 0.047 µg/mL; MIC50 (Klebsiella pneumoniae [13]): 0.047 µg/mL; MIC90 (Klebsiella pneumoniae [13]): 0.125 µg/mL; MIC (Klebsiella pneumoniae [14]): 0.032 µg/mL; MIC50 (Klebsiella pneumoniae [14]): 0.047 µg/mL; MIC90 (Klebsiella pneumoniae [14]): > 1 µg/mL; MIC (Escherichia coli [15]): 0.125 µg/mL; MIC (Escherichia coli [16]): 0.125 µg/mL; MIC (Escherichia coli [17]): 0.125 µg/mL; MIC (Klebsiella pneumoniae [18]): 0.047 µg/mL; MIC50 (Klebsiella pneumoniae [18]): 0.094 µg/mL; MIC90 (Klebsiella pneumoniae [18]): 0.094 µg/mL |
| CO[C@@]1(NC(=O)Cc2cccs2)C(=O)N2C(C(=O)O)=C(COC(N)=O)CS[C@@H]21 [CEFOXITIN] | 3 µg/mL (≈ 7.02 µM) | 16 µg/mL (≈ 37.4 µM) | 8 µg/mL (≈ 18.7 µM) | 8 µg/mL (≈ 18.7 µM) | 16 µg/mL (≈ 37.4 µM) | 1.5 µg/mL (≈ 3.51 µM) | 3 µg/mL (≈ 7.02 µM) | 48 µg/mL (≈ 112 µM) | 8 µg/mL (≈ 18.7 µM) | 8 µg/mL (≈ 18.7 µM) | 8 µg/mL (≈ 18.7 µM) | 3 µg/mL (≈ 7.02 µM) | 4 µg/mL (≈ 9.36 µM) | 24 µg/mL (≈ 56.1 µM) | 4 µg/mL (≈ 9.36 µM) | 16 µg/mL (≈ 37.4 µM) | 8 µg/mL (≈ 18.7 µM) | 12 µg/mL (≈ 28.1 µM) | 48 µg/mL (≈ 112 µM) | – | – |
| CC(C)(O/N=C(\C(=O)N[C@@H]1C(=O)N2C(C(=O)[O-])=C(C[n+]3ccccc3)CS[C@H]12)c1csc(N)n1)C(=O)O [CEFTAZIDIME] | 24 µg/mL (≈ 43.9 µM) | 128 µg/mL (≈ 234 µM) | 24 µg/mL (≈ 43.9 µM) | 32 µg/mL (≈ 58.5 µM) | 64 µg/mL (≈ 117 µM) | 4 µg/mL (≈ 7.32 µM) | 48 µg/mL (≈ 87.8 µM) | 128 µg/mL (≈ 234 µM) | 64 µg/mL (≈ 117 µM) | 128 µg/mL (≈ 234 µM) | 0.5 µg/mL (≈ 0.915 µM) | 16 µg/mL (≈ 29.3 µM) | 32 µg/mL (≈ 58.5 µM) | 96 µg/mL (≈ 176 µM) | 48 µg/mL (≈ 87.8 µM) | 32 µg/mL (≈ 58.5 µM) | 16 µg/mL (≈ 29.3 µM) | 192 µg/mL (≈ 351 µM) | > 256 µg/mL | 0.38 µg/mL | MIC50 (Klebsiella pneumoniae [10]): 0.75 µg/mL; MIC90 (Klebsiella pneumoniae [10]): 1 µg/mL; MIC (Klebsiella pneumoniae [11]): 0.19 µg/mL; MIC50 (Klebsiella pneumoniae [11]): 0.25 µg/mL; MIC90 (Klebsiella pneumoniae [11]): 0.5 µg/mL; MIC (Escherichia coli [12]): 0.25 µg/mL; MIC (Klebsiella pneumoniae [13]): 0.19 µg/mL; MIC50 (Klebsiella pneumoniae [13]): 0.38 µg/mL; MIC90 (Klebsiella pneumoniae [13]): 0.5 µg/mL; MIC (Klebsiella pneumoniae [14]): 0.125 µg/mL; MIC50 (Klebsiella pneumoniae [14]): 0.25 µg/mL; MIC90 (Klebsiella pneumoniae [14]): > 4 µg/mL; MIC (Escherichia coli [15]): 0.5 µg/mL; MIC (Escherichia coli [16]): 0.5 µg/mL; MIC (Escherichia coli [17]): 0.5 µg/mL; MIC (Klebsiella pneumoniae [18]): 0.25 µg/mL; MIC50 (Klebsiella pneumoniae [18]): 0.38 µg/mL; MIC90 (Klebsiella pneumoniae [18]): 0.5 µg/mL |
